16 compounds from BindingDB's records for doi:10.1021/jm00076a003 (Eisai, 1994) can be followed below.

For this assay, the target named is cGMP-specific 3',5'-cyclic phosphodiesterase (PDE5A) (Sus scrofa). The assay can be described thus: Inhibitory activity against cyclic GMP-phosphodiesterase (PDE V) isolated from porcine aorta.
For `COc1cc2c(=O)n(CCc3ccc4c(c3)OCO4)cnc2c(OC)c1OC` [3-(2-Benzo[1,3]dioxol-5-yl-ethyl)-6,7,8-trimethoxy-3H-quinazolin-4-one], the concentration for half-maximal inhibition (IC50) was 32000 nM. Turning to `COc1cc2c(NCCCCCO)ncnc2c(OC)c1OC` [5-(6,7,8-Trimethoxy-quinazolin-4-ylamino)-pentan-1-ol], the IC50 amounted to 5500 nM. Compared with the last compound, the IC50 is about 5.8-fold lower. For `CCCc1c(OCc2ccc3c(c2)OCO3)ccc2c(=O)cc(C(=O)O)oc12` [7-(Benzo[1,3]dioxol-5-ylmethoxy)-4-oxo-8-propyl-4H-chromene-2-carboxylic acid] the value was 650 nM. In turn, `CCCc1c(OCCCOc2ccc3c(=O)cc(C(=O)O)oc3c2CCC)ccc(C(C)=O)c1O` [7-[3-(4-Acetyl-3-hydroxy-2-propyl-phenoxy)-propoxy]-4-oxo-8-propyl-4H-chromene-2-carboxylic acid] had an IC50 of 1500 nM. As for `COc1cc2c(NCc3ccc4c(c3)OCCO4)ncnc2c(OC)c1OC` [(2,3-Dihydro-benzo[1,4]dioxin-6-ylmethyl)-(6,7,8-trimethoxy-quinazolin-4-yl)-amine], the IC50 turned out to be 780 nM. `COc1cc(OC)c(CNc2ncnc3c(OC)c(OC)c(OC)cc23)c(OC)c1` [(2,4,6-Trimethoxy-benzyl)-(6,7,8-trimethoxy-quinazolin-4-yl)-amine] yielded an IC50 above 100000 nM. For `COc1cc(CNc2ncnc3c(OC)c(OC)c(OC)cc23)cc(OC)c1OC` [(3,4,5-Trimethoxy-benzyl)-(6,7,8-trimethoxy-quinazolin-4-yl)-amine], half-maximal inhibition (IC50) required 8900 nM. `COc1cc2c(NCc3cccc(Cl)c3)ncnc2c(OC)c1OC` [(3-Chloro-benzyl)-(6,7,8-trimethoxy-quinazolin-4-yl)-amine] displayed a concentration for half-maximal inhibition (IC50) of 1300 nM. Against the preceding compound, the IC50 is about 6.8-fold lower. In turn, `COc1cccc(CNc2ncnc3c(OC)c(OC)c(OC)cc23)c1` [(3-Methoxy-benzyl)-(6,7,8-trimethoxy-quinazolin-4-yl)-amine] had an IC50 of 1700 nM. As to `COc1cc2c(NCc3cccc([N+](=O)[O-])c3)ncnc2c(OC)c1OC` [(3-Nitro-benzyl)-(6,7,8-trimethoxy-quinazolin-4-yl)-amine], half-maximal inhibition (IC50) required 3500 nM.

As to `COc1cc2c(NCc3ccc(Cl)cc3)ncnc2c(OC)c1OC` [(4-Chloro-benzyl)-(6,7,8-trimethoxy-quinazolin-4-yl)-amine], 1300 nM corresponded to half-maximal inhibition (IC50). `COc1ccc(CNc2ncnc3c(OC)c(OC)c(OC)cc23)cc1` [(4-Methoxy-benzyl)-(6,7,8-trimethoxy-quinazolin-4-yl)-amine] yielded an IC50 of 1000 nM. On to `COc1cc2c(NCc3ccc([N+](=O)[O-])cc3)ncnc2c(OC)c1OC` [(4-Nitro-benzyl)-(6,7,8-trimethoxy-quinazolin-4-yl)-amine], for which the IC50 was above 100000 nM. In turn, `COc1cc2c(NCc3ccccc3)ncnc2c(OC)c1OC` [Benzyl-(6,7,8-trimethoxy-quinazolin-4-yl)-amine] returned an IC50 of 2000 nM. Compound `COc1cc2c(NCc3ccco3)ncnc2c(OC)c1OC` [Furan-2-ylmethyl-(6,7,8-trimethoxy-quinazolin-4-yl)-amine] gave an IC50 of 4000 nM.

As to `COc1cc2c(NCc3ccc4c(c3)CCC4)ncnc2c(OC)c1OC` [Indan-5-ylmethyl-(6,7,8-trimethoxy-quinazolin-4-yl)-amine], the IC50 came out at 1900 nM.
